Laboratory results: BigSolDB 2.1

N#Cc1c(Cl)c(Cl)c(Cl)c(C#N)c1Cl
solubility (mole fraction)
Conditions | in 1,4-dioxane | in DMAc | in DMF | in MIBK | in THF | in acetone | in acetonitrile | in cyclohexanone | in ethyl acetate | in n-propyl acetate
288.15 K | 0.0082 | 0.017 | 0.00992 | 0.00381 | 0.00909 | 0.00369 | 0.00134 | 0.0079 | 0.00311 | 0.0033
293.15 K | 0.00951 | 0.0191 | 0.0111 | 0.00447 | 0.0102 | 0.00443 | 0.00161 | 0.00905 | 0.00374 | 0.00384
298.15 K | 0.0109 | 0.0211 | 0.0128 | 0.00509 | 0.012 | 0.00512 | 0.00193 | 0.0106 | 0.00435 | 0.00444
303.15 K | 0.0118 | 0.0239 | 0.0142 | 0.00603 | 0.0137 | 0.00566 | 0.00228 | 0.0123 | 0.00496 | 0.00523
308.15 K | 0.0136 | 0.0264 | 0.0155 | 0.00668 | 0.0155 | 0.00682 | 0.00272 | 0.0135 | 0.00543 | 0.00566
313.15 K | 0.015 | 0.03 | 0.0177 | 0.00802 | 0.0172 | 0.00779 | 0.00308 | 0.0154 | 0.00643 | 0.0067
318.15 K | 0.0177 | 0.0334 | 0.0197 | 0.0102 | 0.0208 | 0.00932 | 0.00413 | 0.019 | 0.00744 | 0.0079
323.15 K | 0.0215 | 0.0359 | 0.0233 | 0.0115 | 0.023 | 0.0113 | 0.00462 | 0.0222 | 0.00893 | 0.00904
